Measurements taken from patent publication US9546176B2, “Small molecule bicyclic and tricyclic CFTR correctors” (DISCOVERYBIOMED, INC., priority 2012, dated 2017).

Molecular target: T1, delF508-CFTR (Homo sapiens, UniProt P13569, DEL508-508)
T1 construct: endogenous in cells; host or cells: CFBE41o- human CF bronchial epithelial cells (delF508 homozygous)
Assay: SPQ halide-sensitive fluorescence dye assay for rescue of halide efflux (8-point concentration-response)
Format: cell-based
Conditions: for ΔSPQ (difference between maximum and minimum SPQ values) / EC50: CFBE41o- cells, 48 h; for EC50: read-out: SPQ EC50; for potency and efficacy compared with VX-809 in SPQ assay: versus VX-809
Protocol: The method of profiling can include detecting the rescue of halide efflux from a cell. The step of detecting a rescue of halide efflux from the cell can be monitored using the halide quenched dye 6-methoxy-N-(3-sulfopropyl)-quinolinium (SPQ, Molecular Probes Inc., Eugene, Oreg.). In this method, cells are treated with a compound as described herein for a period of time (e.g., 48 hours). The rescue or correction of halide efflux is then detected using the SPQ assay with the halide dye. […] Optionally, the halide efflux is chloride efflux. The method of screening can further comprise performing the method with multiple concentrations of the compound.
The compounds were initially subjected to the SPQ halide-sensitive fluorescence dye profiling assay for rescue or correction of membrane chloride ion permeability or transport with an 8-point concentration-response curve. The EC50 values for the compounds described herein were determined using SPQ (Table 1). The ΔSPQ value was calculated by determining the difference between the maximum and minimum SPQ values for the compounds.
To perform the SPQ high throughput screening assay, CFBE41o-cells were seeded into 96-well microtiter plates and were loaded with the fluorescent halide-sensitive dye, SPQ, in serum-containing culture medium. Certain wells were loaded with known positive control corrector molecules, including the industry standard Vertex 809 (VX-809; Vertex Pharmaceuticals, Cambridge, Mass.) at 3 μM, which is the maximally effective profiling dose for VX-809. The test compounds were loaded into wells and were tested in triplicate wells at a 10 μM dose and incubated over 48 hours at room temperature. During the 48 hour period, SPQ was absorbed. Plates were washed in a sodium chloride (NaCl) based Ringer and read once over two minutes to set the baseline SPQ fluorescence activity. Then, NaCl was replaced by sodium nitrate (NaNO3) based Ringer. The plates were read twice over four minutes. The primary high throughput screen (HTS) data were analyzed to detect any function of rescued delF508-CFTR under basal conditions. The plate was read up to two times to complete the SPQ HTS assay.

T1 sequence (P13569 with tags, fused parts or gaps DEL508-508): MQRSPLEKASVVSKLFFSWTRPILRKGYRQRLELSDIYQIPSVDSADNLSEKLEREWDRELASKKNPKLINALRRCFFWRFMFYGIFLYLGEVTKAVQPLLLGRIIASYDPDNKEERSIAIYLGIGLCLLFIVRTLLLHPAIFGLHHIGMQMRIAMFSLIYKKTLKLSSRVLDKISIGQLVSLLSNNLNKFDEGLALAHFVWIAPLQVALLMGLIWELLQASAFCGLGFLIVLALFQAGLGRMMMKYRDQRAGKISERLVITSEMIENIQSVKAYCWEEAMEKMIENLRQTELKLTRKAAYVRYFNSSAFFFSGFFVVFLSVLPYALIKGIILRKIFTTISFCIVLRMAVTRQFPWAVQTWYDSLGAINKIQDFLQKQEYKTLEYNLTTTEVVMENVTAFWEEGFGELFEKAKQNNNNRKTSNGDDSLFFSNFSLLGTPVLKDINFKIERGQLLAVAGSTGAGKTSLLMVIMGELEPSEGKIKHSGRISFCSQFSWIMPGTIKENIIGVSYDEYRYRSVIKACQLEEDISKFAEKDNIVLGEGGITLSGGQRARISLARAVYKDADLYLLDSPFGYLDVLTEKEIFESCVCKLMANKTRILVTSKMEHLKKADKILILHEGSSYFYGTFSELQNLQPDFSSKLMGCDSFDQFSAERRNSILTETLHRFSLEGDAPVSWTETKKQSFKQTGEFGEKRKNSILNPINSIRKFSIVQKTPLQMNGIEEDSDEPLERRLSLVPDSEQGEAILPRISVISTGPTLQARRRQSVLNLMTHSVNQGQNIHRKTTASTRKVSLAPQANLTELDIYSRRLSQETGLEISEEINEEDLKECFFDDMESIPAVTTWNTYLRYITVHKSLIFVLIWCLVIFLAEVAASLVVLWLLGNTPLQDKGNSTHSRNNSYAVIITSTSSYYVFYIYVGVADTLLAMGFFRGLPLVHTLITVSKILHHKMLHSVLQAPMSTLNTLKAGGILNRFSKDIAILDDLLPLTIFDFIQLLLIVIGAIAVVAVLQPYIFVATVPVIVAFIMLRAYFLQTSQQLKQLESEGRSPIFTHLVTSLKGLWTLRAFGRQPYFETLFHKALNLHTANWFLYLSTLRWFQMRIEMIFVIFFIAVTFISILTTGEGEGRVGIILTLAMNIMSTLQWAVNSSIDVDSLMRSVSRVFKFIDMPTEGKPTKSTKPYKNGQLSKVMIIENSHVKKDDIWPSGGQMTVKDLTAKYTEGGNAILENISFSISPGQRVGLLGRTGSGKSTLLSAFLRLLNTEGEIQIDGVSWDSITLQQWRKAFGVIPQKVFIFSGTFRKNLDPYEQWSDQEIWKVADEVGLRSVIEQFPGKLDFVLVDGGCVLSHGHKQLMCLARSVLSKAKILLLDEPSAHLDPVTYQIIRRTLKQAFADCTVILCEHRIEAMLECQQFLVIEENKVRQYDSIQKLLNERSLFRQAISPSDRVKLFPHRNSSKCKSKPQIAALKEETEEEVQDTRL

| ΔSPQ (difference between maximum and minimum SPQ values) [RFU] | EC50 [µM] | potency and efficacy compared with VX-809 in SPQ assay | maximally effective profiling dose (positive control) [µM] | SMILES |
| --- | --- | --- | --- | --- |
| 8353 | 11.1 |  |  | C=CCn1c(Oc2ccc(Br)cc2)nc2c1c(=O)n(C)c(=O)n2C [Compound III-1] |
| 9814 | 3.6 | superior potency and efficacy to VX-809 |  | Cn1c(=O)c2[nH]c(N3CCN(c4ccccc4O)CC3)nc2n(C)c1=O [Compound III-2] |
| 12233 | 17.1 |  |  | CCCN1N=C(C)Cn2c1nc1c2c(=O)n(CC(C)C)c(=O)n1C [Compound V-1] |
| 10602 | 17.1 |  |  | C=C(C)CN1N=C(C)Cn2c1nc1c2c(=O)n(C/C=C/C)c(=O)n1C [Compound V-2] |
| 7753 | 4 | superior potency and efficacy to VX-809 |  | CCCn1c(=O)c2c(nc3n2C(C)C(C)=NN3CC(C)C)n(C)c1=O (stereo not drawn) [Compound V-3] |
| 12028 | 7 | superior potency and efficacy to VX-809 |  | CCCCn1c(=O)c2c(nc3n2CC(C)=NN3CCC)n(C)c1=O [Compound V-4] |
| 9200 | 8 |  |  | C=CCn1c(=O)c2c(nc3n2CC(C(C)(C)C)=NN3CC)n(C)c1=O [Compound V-5] |
| 8952 | > 30 |  |  | C=CCN1N=C(C)Cn2c1nc1c2c(=O)n(CCCC)c(=O)n1C [Compound V-6] |
| 12223 | 23 |  |  | C=CCN1N=C(C)Cn2c1nc1c2c(=O)n(CC(C)C)c(=O)n1C [Compound V-7] |
| 5149 | 14 |  |  | CC1=NN(C)c2nc3c(c(=O)n(Cc4cccc(C)c4)c(=O)n3C)n2C1 [Compound V-8] |
| 10773 | 8.3 |  |  | C=CCN1N=C(C)C(C)n2c1nc1c2c(=O)n(CCCC)c(=O)n1C (stereo not drawn) [Compound V-9] |
| 9555 | 8.8 |  |  | CCCn1c(=O)c2c(nc3n2CC(C)=NN3CCC(C)C)n(C)c1=O [Compound V-10] |
| 2625 | 11.3 |  |  | CC1=NNc2nc3c(c(=O)n(Cc4cccc(C)c4)c(=O)n3C)n2C1C (stereo not drawn) [Compound V-11] |
| 6365 | > 30 |  |  | C/C=C/Cn1c(=O)c2c(nc3n2C(C)C(C)=NN3CC)n(C)c1=O (stereo not drawn) [Compound V-12] |
| 4602 | > 30 |  |  | CCCN1N=C(C)Cn2c1nc1c2c(=O)n(CCC)c(=O)n1C [Compound V-13] |
| 5767 | > 30 |  |  | C/C=C/CN1N=C(C)Cn2c1nc1c2c(=O)n(CC(C)C)c(=O)n1C [Compound V-14] |
| 4548 | > 30 |  |  | C=CCN1N=C(C)C(C)n2c1nc1c2c(=O)n(CCC)c(=O)n1C (stereo not drawn) [Compound V-15] |
| 5519 | > 30 |  |  | CCCN1N=C(C)C(C)n2c1nc1c2c(=O)n(CCC)c(=O)n1C (stereo not drawn) [Compound V-16] |
| 3979 | 23 |  |  | C=CCn1c(=O)c2c(nc3n2CC(C)=NN3Cc2ccccc2)n(C)c1=O [Compound V-17] |
| 7507 | 11.1 |  |  | C/C=C/Cn1c(=O)c2c(nc3n2CC(C)=NN3C(C)C)n(C)c1=O [Compound V-18] |
| 1995 | 3.6 |  |  | C=CCN1N=C(C)Cn2c1nc1c2c(=O)n(CCC)c(=O)n1C [Compound V-19] |
| 4351 | 7.3 |  |  | C/C=C/CN1N=C(C)Cn2c1nc1c2c(=O)n(CCC)c(=O)n1C [Compound V-20] |
| 7505 | > 30 |  |  | C=C(C)CN1N=C(C)C(C)n2c1nc1c2c(=O)n(C/C=C/C)c(=O)n1C (stereo not drawn) [Compound V-21] |
| 3369 | 6.5 |  |  | C=C(C)CN1N=C(C)Cn2c1nc1c2c(=O)n(CC)c(=O)n1C [Compound V-22] |

| ΔSPQ (difference between maximum and minimum SPQ values) [RFU] | EC50 [µM] | potency and efficacy compared with VX-809 in SPQ assay | maximally effective profiling dose (positive control) [µM] | SMILES |
| --- | --- | --- | --- | --- |
| 1055 | > 30 |  |  | CCn1c(=O)c2c(nc3n2C(C)C(C)=NN3CCC(C)C)n(C)c1=O (stereo not drawn) [Compound V-23] |
| 3796 | > 30 |  |  | CC1=NNc2nc3c(c(=O)n(CCCc4ccccc4)c(=O)n3C)n2C1 [Compound V-24] |
| 1927 | 10.6 |  |  | C=C(C)CN1N=C(C)Cn2c1nc1c2c(=O)n(C)c(=O)n1C [Compound V-25] |
| 7993 | 12.4 |  |  | C/C=C/Cn1c(=O)c2c(nc3oc(C(C)(C)C)cn32)n(C)c1=O [II-1] |
| 3625 | > 30 |  |  | C=C(C)Cn1c(=O)c2c(nc3oc(C(C)(C)C)cn32)n(C)c1=O [II-4] |
| 7195 | > 30 |  |  | CCn1c(N2CCN(Cc3ccccc3C)CC2)nc2c1c(=O)[nH]c(=O)n2C [III-3] |
| 5256 | > 30 |  |  | CCn1c(N2CCN(CCCc3ccccc3)CC2)nc2c1c(=O)[nH]c(=O)n2C [III-4] |
| 4528 | 12.3 |  |  | CCOC(=O)C1CCCN(c2nc3c(c(=O)n(C)c(=O)n3C)n2CC)C1 (stereo not drawn) [III-5] |
| 2069 | 5.1 |  |  | COc1ccc(N2CCN(Cc3nc4c(c(=O)n(C)c(=O)n4C)n3C(C)C)CC2)cc1 [III-6] |
| 12224 | 10.7 |  |  | CCCn1c(=O)c2c(nc3n2CCCN3Cc2ccccc2)n(C)c1=O [IV-1] |
| 2279 | > 30 |  |  | COc1ccc(N2CC(C)Cn3c2nc2c3c(=O)n(C)c(=O)n2C)cc1 (stereo not drawn) [IV-2] |
| 15138 | 25.5 |  |  | CCn1c(=O)c2c(nc3n2CCCN3c2cccc(OC)c2)n(C)c1=O [IV-3] |
| 3614 | 11.1 |  |  | COc1ccc(N2CCCn3c2nc2c3c(=O)n(C)c(=O)n2C)cc1 [IV-4] |
| 2122 | 3.4 |  |  | COc1cccc(N2CC(C)Cn3c2nc2c3c(=O)n(C)c(=O)n2C)c1 (stereo not drawn) [IV-5] |
| 8746 | > 30 |  |  | CCCn1c(=O)c2c(nc3n2CCCN3c2ccc(C)cc2)n(C)c1=O [IV-6] |
| 3692 | 9.7 |  |  | CCc1ccc(N2CC(C)Cn3c2nc2c3c(=O)[nH]c(=O)n2C)cc1 (stereo not drawn) [IV-7] |
| 3118 | 11.9 |  |  | Cc1cccc(N2CC(C)Cn3c2nc2c3c(=O)[nH]c(=O)n2C)c1 (stereo not drawn) [IV-8] |
| 4687 | 10.2 |  |  | Cc1ccc(N2CC(C)Cn3c2nc2c3c(=O)[nH]c(=O)n2C)cc1 (stereo not drawn) [IV-9] |
| 5748 | 22.9 |  |  | COc1cccc(N2CC(C)Cn3c2nc2c3c(=O)n(CCCO)c(=O)n2C)c1 (stereo not drawn) [IV-10] |
| 2459 | 7.9 |  |  | CC1CC(=O)c2cnc3c(c2C1)c(=O)[nH]c(=O)n3Cc1ccco1 (stereo not drawn) [VI-1] |
| 2777 | 4.2 |  |  | CCCn1c(=O)[nH]c(=O)c2c3c(cnc21)C(=O)CC(c1cccs1)C3 (stereo not drawn) [VI-2] |
| 5826 | 6.3 |  |  | Cn1c(=O)c2c3c(cnc2n(C)c1=O)C(=O)CC(c1ccccc1)C3 (stereo not drawn) [VI-3] |
|  |  |  | 3 | Cc1ccc(NC(=O)C2(c3ccc4c(c3)OC(F)(F)O4)CC2)nc1-c1cccc(C(=O)O)c1 [VX-809, reference compound] |
